One assay deals with segmental femoral defect. Nature of the assay: Segmental femoral defect rat fracture model (Example 1). The assay is classed as in vivo. Particulars: for bone healing and fracture repair, treated versus control animals: radiography, sacrifice at 6 weeks; for bone healing and fracture repair, treated versus control animals / bone growth in the defects (weekly radiographic density of segmented bone defect) relative to control: subcutaneous daily; for bone growth in the defects (weekly radiographic density of segmented bone defect) relative to control: FIG. 1, after four weeks of treatment; for radiographic density ratio of the segmented bone to the contralateral femur: FIG. 2, after six weeks of treatment, relative to control treated rats. The protocol:
T. A. Einhorn et al. “The Healing of Segmented Bone Defects Induced by Demineralized Bone Matrix. A Radiographic and Biomechanical Study,” J. Bone Joint, 66:274-279 (1984.
Adult male Sprague-Dawley rats weighing about 300 grams were maintained on Laboratory Rodent Diet 5001 (PMI Feeds, St. Louis, Mo.) and water ad libitum. All rats received only water for 12 hours prior to surgery. The animals were anesthetized prior to surgery by IP injection with ketamine (80 mg/kg) and xylazine (5 mg/kg). A single dose of procaine penicillin was given intramuscularly for prophylaxis against infection.
A lateral approach to the femur was used and a pre-drilled high density polyethylene plate was fixed along the anterior cortex of the femur. During this placement the periosteum of the femur was extensively stripped. A […] non-critical sized segmental defect was created in the mid portion of the femur shaft. The wound was closed with nylon and chromic sutures.
Postoperatively, the rats were placed in cages with 48 hour post-operative access to food pellets. The animals were monitored at least once daily and animals displaying any signs of illness were examined and given appropriate therapy if necessary.
Rats were divided into groups as shown in Table 1 and either a control vehicle (saline) or a PTHrP analog as described herein was administered subcutaneously daily starting on post-operative day 1. Radiographic analyses were performed weekly. Animals were sacrificed at 6 weeks and compared by radiography.
Sedated rats were placed in the prone position with hindlimbs externally rotated. Serial radiographs of each femur (involved femur and contralateral femur) were taken weekly starting with postoperative week 1. An aluminium phantom device with known density values was included in each radiograph for calibration. Each radiograph was placed on a translumination board and a picture taken using a DCS 420 digital Kodak camera. These images were then transferred to a Gateway 2000 IBM compatible computer and digitized using image analysis software (Sigma Scan©). An outline of the defect was traced and the average density of the area of the osteotomy measured in treated animals relative to control animals. […] The average density of the osteotomy was also compared to the average density of the contralateral femur for each weekly reading. […] After sacrifice (6 weeks), the femurs (experimental and contralateral) were dissected free of soft tissue. Fine grain radiographs were taken of the femurs in the lateral plane. The osteotomy was considered united when there was osseous continuity of the femur across more than 25% of the cross sectional diameter of the defect.

Another assay relates to ulnar osteotomy. Nature of the assay: Ulnar osteotomy model, corticosteroid induced delayed healing (Example 4). It is filed as in vivo, rabbit. The protocol:
Adult male New Zealand White rabbits were used in all experiments. In Part I, ten rabbits were divided into two equal groups and in Part II, twenty rabbits were divided equally. Non critical sized (1 mm) defects were created bilaterally in each rabbit. From two months prior to surgery through six weeks post-operative, all rabbits received daily subcutaneous injections of either prednisone (0.15 mg/kg) in sterile water (experimental group) or sterile saline (control group). Beginning on the first post-operative day, the experimental group were administered daily sub cutaneious infections of PTHrP analog D (0.01 mg/kg), while the control group received injections of normal saline. In Part I, animals were sacrificed at six weeks after creation of the osteotomy. In Part II, animals were sacrificed once radiographic union was reached bilaterally, or in cases of non-union at ten weeks post-operative. In both sets of experiments, radiological intensity and healing area were analyzed every other week starting two weeks (Part I) or four weeks (Part II) post-operatively. Serial radiographs of the forelimbs were taken and digitized and the bone area was quantified using image analysis software (Sigma Scan Pro). Photodensitometry was used to quantitate the mineral content of the newly formed bone at sites of osteotomy and callus formation. After sacrifice, high resolution faxitron radiographs were taken of both limbs in the anteroposterior and lateral planes, allowing for analysis of fracture callus dimension and size.

Assay [1] deals with intramembraneous bone defect. The assay can be described thus: Intramembraneous bone healing, drill hole defects in distal femur and proximal tibia (Example 3). It is filed as in vivo, rabbit. To be noted: for intramembraneous bone formation relative to vehicle treated animals: 2 or 10 μg/kg/day subcutaneous daily; for femoral defects healed / tibial defects healed: day 21. The text has this:
Rabbits were generally anesthesized and subjected to surgery to create four surface defects, one in each distal femur and one in each proximal tibia. A posterior lateral surgical incision measuring approximately 3 cm. was made to expose the distal lateral femoral condyle. Bone proximal to the knee joint was subperiosteally exposed and a 5 mm drill hole was made, keeping the drill bit cool by constant irrigation. The wound was irrigated with normal saline. Deep tissue was closed with a running 3-0 chronic suture followed by closure of the subticular layer with a running 3-0 nylon suture and three to four interrupted stainless steel sutures. A second 3 cm. incision was made over the medial proximal tibia and a 5 mm drill hole was made in the proximal medial tibia. The wound was closed as described previously. The entire procedure was repeated on the contralateral limb.
Stock solutions of PTHrP analog C, (MAP1-10)^22-31His^26hPTHrP(1-34)NH2, and PTHRP analog D, (MAP1-10)^22-31hPTHrP(1-34)NH2, at 800 μg/ml were prepared by sterile filtration through an 0.22 micron filter and diluted in vehicle to either 20 μg/ml or 100 μg/ml just before administration. Vehicle was 30 mg/ml mannitol, 30/mg/ml sucrose, 0.12 mg/ml Tween™ 80, 0.17 mg/ml acetic acid and 2.33 mg/ml sodium acetate trihydrate. PTHrP analogs at either 2 μg/kg/day or 10 μg/kg/day was administered daily by subcutaneous injection to the surgically treated animals.
Animals were X-rayed weekly for the duration of the study. Densitometric measurements were made using a transilluminating scanner and MetaMorph™ (Universal Imaging, West Chester, Pa.) software. Radiographs of the lower extremities were performed in internal and external rotation on post-operative day 10 and 21. The animals were sacrificed on post-operative day 30. At the end of the study, animals were euthanized by pentobarbital overdose, tissues were harvested from the left and right femurs and tibias were analyzed by x-ray and histological analysis.

Another assay deals with fracture healing. Particulars: intermittent treatment; ovariectomized rats; Kim et al.; cited from earlier work.
[2] abbreviates: high dose group (10 μg/kg/day s.c.).
The mark [3] stands for this setting: low dose group (2 μg/kg/day s.c.), no complete healing in controls.

Take “(MAP1-10)^22-31hSer^34PTHrP(1-34)THIQ NH2”: the “bone healing and fracture repair, treated versus control animals” value in the assay with segmental femoral defect was “accelerated bone healing and fracture repair”.
In the case of “(MAP1-10)^22-31Ala^19hPTHrP(1-34)NH2 [PTHrP analog B]”, in the assay with segmental femoral defect, the “bone growth in the defects (weekly radiographic density of segmented bone defect) relative to control” value was “greater than in the control animals” and the “radiographic density ratio of the segmented bone to the contralateral femur” value is reported as “increased bone density”.
Regarding “(MAP1-10)^22-31c[Lys^13, Asp^17]hPTHrP(1-34)NH2”, the “bone healing and fracture repair, treated versus control animals” value in the assay with segmental femoral defect is “accelerated bone healing and fracture repair”.
With “(MAP1-10)^22-31hPTHrP(1-34)NH2 [PTHrP analog D]”, the “torsional strength (stiffness and maximum torque) versus vehicle-treated control limbs” value with ulnar osteotomy (Part I, biomechanical) is given as “significantly greater”. Moreover, in the assay on ulnar osteotomy (Part I, six weeks), the “intensities at the osteotomy sites, anteroposterior and lateral faxitrons, treated versus control limbs” value was “significantly greater”; the “intensity of proximal and distal ulnar diaphyses, treated versus control limbs” value was “significantly greater”; the “intensity of the external calluses (lateral), treated versus control limbs” value is recorded as “also greater”. Besides, the “limbs that achieved union” value with ulnar osteotomy (Part I, six weeks, 0.01 mg/kg daily s.c., prednisone, two out of ten in vehicle controls, FIG. 5) is “Nine out ten”. For the same molecule, in the assay with ulnar osteotomy (Part II, after sacrifice), the “area of the osteotomy versus vehicle control limbs” value is “significantly smaller”. Further, the “radiographic intensity at the osteotomy site, ulnar diaphysis and callus area versus vehicle control limbs” value with ulnar osteotomy (Part II, after sacrifice, p<0.05 at osteotomy site) was “greater radiographic intensity”. In addition, in the assay with ulnar osteotomy (Part II, four weeks, p<0.01 at osteotomy site), the “radiographic intensity at the osteotomy site, external calluses and ulnar diaphyses versus control limbs” value was “greater radiographic intensity”. Further, the “combined callus areas versus control limbs” value in the assay with ulnar osteotomy (Part II, four weeks, p<0.05) is “greater”. In the assay with ulnar osteotomy (Part II, six weeks), the “callus intensity or area versus control limbs” value is “no differences” and the “intensity at the osteotomy site versus control limbs, in vivo radiography” value is reported as “trend of increased intensity”. Further, the union rate entry with ulnar osteotomy (Part II, six weeks, radiographic union) is listed as “complete union rate”. Further, the “intramembraneous bone formation relative to vehicle treated animals” value in assay [1] is given as “accelerated intramembraneous bone formation”. For the same molecule, in assay [1] (at sacrifice (day 30), high dose, radiographic analysis, p<0.01 vs control (less than 10%)), the “tibial defects filled with mineralized tissue” value is “over 85%”. Moreover, the “percent fill of femoral defects versus control treated femoral defects” value in assay [1] (at sacrifice, p<0.01) is on record as “significant greater percent fill”. In assay [1] (setting [2]), the femoral defects healed came out at 50% and the tibial defects healed is 75%. In assay [1] (setting [3]), this molecule returned a femoral defects healed of 40% and a tibial defects healed of 40%.
For the molecule “(MAP1-10)^22-31His^26hPTHrP(1-34)NH2 [PTHrP analog C]”, in the assay on segmental femoral defect, the “bone growth in the defects (weekly radiographic density of segmented bone defect) relative to control” value is “greater than in the control animals” and the “radiographic density ratio of the segmented bone to the contralateral femur” value was “increased bone density”. For the same molecule, in the assay on segmental femoral defect (FIG. 3, after treatment for six weeks, control defect remains non-united), the “union of the defect in high resolution radiographs” value is “has healed”. Moreover, in assay [1], the “intramembraneous bone formation relative to vehicle treated animals” value is on record as “accelerated intramembraneous bone formation”.

B1: parathyroid hormone (protein, UniProt P01270 32-115, looked up)
Parathyroid hormone: SVSEIQLMHNLGKHLNSMERVEWLRKKLQDVHNFVALGAPLAPRDAGSQRPRKKEDNVLVESHEKSLGEADKADVNVLTKAKSQ
modifications: Parathyroid hormone recombinant
notes: Recombinant human (1-84) parathyroid hormone, per the cited Kim et al. titles
With B1, the fracture healing result in the assay on fracture healing is reported as “improves fracture healing”.

These data come from patent US6583114B2, “Fracture healing using pthrp analogs” (Roche Palo Alto LLC, priority 1997, dated 2003).
